Consider 38 compounds from patent US9456972B2, “Niacin-peptide having skin whitening activity and use for same” (priority 2011, dated 2016).

Square brackets hold non-standard residues; d marks the D form. Ends that are not written are not given here. Peptide text beside a SMILES is read from it. * marks the point of attachment. Nicotinoyl = O=C(c1cccnc1)*; βAla = NCCC(=O)O

The test system of one data set is B16F10 melanocytes. As to the kind of experiment: Screening of niacin-peptides: inhibition of melanogenesis against α-MSH. Type of data set: cell-based, mouse. Further details: key: relative to absorbance (490 nm) of α-MSH-only positive control. The note with it: 20 μg/ml α-MSH plus 10 ng/ml peptide, 3 days, UV 490 nm, α-MSH-only positive control as standard. On the procedure:
The present inventors screened skin whitening peptides by measuring decrease in melanogenesis using the niacin-peptide libraries prepared in Example 1. B16F10 melanocytes (the Korean Cell Line Bank) were incubated with α-MSH to induce melanogenesis and the inhibition of melanogenesis by the peptide libraries was analyzed. The mouse melanocytes were cultured at 37° C. in 5% CO2 atmosphere in DMEM supplemented with 10% FBS. The cells were seeded in each well of a 96-well plate (5×10^4 cells/well) and their attachment was verified. Afterwards, the control group was incubated with only solvent, the positive control group was incubated with 20 μg/ml of α-MSH and the other wells was incubated with 20 μg/ml of α-MSH and 10 ng/ml of peptides for 3 days.
The inhibition rates of melanogenesis by treatment of each peptide prepared in Example 1 were measured at UV 490 nm. The inhibition rates were calculated using the absorbance value of the positive control group incubated with only α-MSH as a standard, which are summarized in Table 1. The candidate peptides analyzed to show excellent screening results were selected and synthesized in a 100-μmole scale for further experiments. FIG. 1 represents the screening result of niacin-peptides.
On to nicotinoyl-AHK (Nicotinoyl-Ala-His-Lys), for which the “Screening value: Inhibition of melanogenesis against α-MSH” value (“Screening value: Inhibition” below) is given as 0.8.

Regarding nicotinoyl-DKYV, the “Screening value: Inhibition” value is recorded as 0.87.

Turning to “nicotinoyl-EEMQRR-NH2 (Nicotinoyl-EEMQRR-NH2; SMILES CSCC[C@H](NC(=O)[C@H](CCC(=O)O)NC(=O)[C@H](CCC(=O)O)NC(=O)c1cccnc1)C(=O)N[C@@H](CCC(N)=O)C(=O)N[C@@H](CCCNC(=N)N)C(=O)N[C@@H](CCCNC(=N)N)C(N)=O)”, the “Screening value: Inhibition” value came out at 0.86.

Consider nicotinoyl-FWY (Nicotinoyl-Phe-Trp-Tyr), for which the “Screening value: Inhibition” value is listed as 0.61.

As for nicotinoyl-GEPG (Nicotinoyl-GEPG), the “Screening value: Inhibition” value is given as 0.96.

For the compound nicotinoyl-GHR (Nicotinoyl-Gly-His-Arg), the “Screening value: Inhibition” value was 0.75.

Take nicotinoyl-GPHyp: the “Screening value: Inhibition” value came out at 0.89.

For the compound nicotinoyl-GPQGPQ (Nicotinoyl-GPQGPQ), the “Screening value: Inhibition” value came out at 0.88.

On to “nicotinoyl-GPRPA-NH2 (Nicotinoyl-GPRPA-NH2; SMILES C[C@H](NC(=O)[C@@H]1CCCN1C(=O)[C@H](CCCNC(=N)N)NC(=O)[C@@H]1CCCN1C(=O)CNC(=O)c1cccnc1)C(N)=O)”, for which the “Screening value: Inhibition” value is listed as 0.7.

With nicotinoyl-GQPR (Nicotinoyl-GQPR), the “Screening value: Inhibition” value worked out at 0.83.

For nicotinoyl-GRKG (Nicotinoyl-GRKG), the “Screening value: Inhibition” value came out at 0.93.

As for nicotinoyl-ISELGW (Nicotinoyl-ISELGW), the “Screening value: Inhibition” value is on record as 0.64.

Regarding nicotinoyl-KAKA (Nicotinoyl-KAKA), the “Screening value: Inhibition” value stood at 0.87.

Turning to nicotinoyl-KLAKK (Nicotinoyl-KLAKK), the “Screening value: Inhibition” value stood at 0.96.

For the compound nicotinoyl-KRGDR (Nicotinoyl-KRGDR), the “Screening value: Inhibition” value was found to be 0.92.

For the compound nicotinoyl-KRGKP (Nicotinoyl-KRGKP), the “Screening value: Inhibition” value was determined as 0.84.

As to nicotinoyl-KTTKS (Nicotinoyl-KTTKS), the “Screening value: Inhibition” value came to 0.92.

As to nicotinoyl-KVARP (Nicotinoyl-KVARP), the “Screening value: Inhibition” value is listed as 0.96.

Take nicotinoyl-KVK (Nicotinoyl-Lys-Val-Lys): the “Screening value: Inhibition” value turned out to be 1.01.

As to nicotinoyl-NP, the “Screening value: Inhibition” value was determined as 0.8.

With “nicotinoyl-PLG-NH2 (Nicotinoyl-Pro-Leu-Gly-NH2; SMILES CC(C)C[C@H](NC(=O)[C@@H]1CCCN1C(=O)c1cccnc1)C(=O)NCC(N)=O)”, the “Screening value: Inhibition” value is listed as 0.92.

Regarding nicotinoyl-RKDVY (Nicotinoyl-RKDVY), the “Screening value: Inhibition” value came out at 0.87.

With nicotinoyl-SIKVAV (Nicotinoyl-SIKVAV), the “Screening value: Inhibition” value stood at 0.72.

As for nicotinoyl-SSNA (Nicotinoyl-SSNA), the “Screening value: Inhibition” value worked out at 0.71.

Turning to nicotinoyl-TYR (Nicotinoyl-Thr-Tyr-Arg), the “Screening value: Inhibition” value is reported as 0.72.

nicotinoyl-VEPIPY (Nicotinoyl-VEPIPY): the “Screening value: Inhibition” value turned out to be 0.81.

Turning to nicotinoyl-VGVAPG (Nicotinoyl-VGVAPG), the “Screening value: Inhibition” value is 0.95.

For the compound nicotinoyl-VPAA (Nicotinoyl-VPAA), the “Screening value: Inhibition” value was determined as 0.85.

Turning to nicotinoyl-YGGFL, the “Screening value: Inhibition” value is listed as 0.78.

With nicotinoyl-YGGFM (Nicotinoyl-YGGFM), the “Screening value: Inhibition” value stood at 0.81.

Take nicotinoyl-YGY (Nicotinoyl-Tyr-Gly-Tyr): the “Screening value: Inhibition” value amounted to 0.69.

Turning to nicotinoyl-YGYTGA (Nicotinoyl-YGYTGA), the “Screening value: Inhibition” value is 0.95.

As for “nicotinoyl-YPFF-NH2 (Nicotinoyl-YPFF-NH2; SMILES NC(=O)[C@H](Cc1ccccc1)NC(=O)[C@H](Cc1ccccc1)NC(=O)[C@@H]1CCCN1C(=O)[C@H](Cc1ccc(O)cc1)NC(=O)c1cccnc1)”, the “Screening value: Inhibition” value is recorded as 0.85.

Take nicotinoyl-YT: the “Screening value: Inhibition” value was determined as 0.75.

As for “nicotinoyl-beta-AHSH (Nicotinoyl-[βAla]HSH)”, the “Screening value: Inhibition” value is on record as 0.82.

The test system of a further data set is melanin movement from melanocytes to keratinocytes.
Assay: not given
The note with it: cited from earlier work.
With `NC(=O)c1cccnc1` [Niacinamide], the “decrease of melanin movement from melanocytes to keratinocytes” value is on record as 68%.

The subject of the next data set is B16F10 cells. As to the kind of experiment: Skin whitening effect: melanogenesis at various concentrations in α-MSH-treated melanocytes. The note with it: 1, 10, 100 and 250 μg/ml, 3 days. In kind it is cell-based, mouse. On the procedure: Cells were treated with various concentrations of niacin-peptide, followed by measuring activity in inhibition of melanogenesis. The mouse melanocytes were cultured at 37° C. in 5% CO2 atmosphere in DMEM supplemented with 10% FBS. The cells were seeded in each well of a 24-well plate (1×10^5 cells/well) and their attachment was verified. Cells were incubated with each test group for 3 days: (a) only solvent as negative control; (b) 20 μg/ml α-MSH as a positive control; (c) 20 μg/ml α-MSH plus 1, 10, 100 and 250 μg/ml niacin-peptides (NA-PG, NAPS, NA-ET and NA-VS); (d) 1, 10, 100 and 250 μg/ml arbutin; and (e) 1, 10, 100 and 250 μg/ml AA2G.
FIG. 5 is images of melanocytes representing treatment effects of NA-PS and PS peptides on melanogenesis decrease rate in a concentration dependent manner.
For analyzing the release amount of melanin, the absorbance values of the culture medium were measured at 490 nm.
For the compound `OC[C@H]1O[C@@H](Oc2ccc(O)cc2)[C@H](O)[C@@H](O)[C@@H]1O` [arbutin], the “cell number compared with the α-MSH treated group” value is reported as “significantly decreased”.

Tested on in a further data set: not listed separately
As to the kind of experiment: Stability of niacin-peptides in human serum. Type of data set: in vitro ADME. The note with it: 100 μg/ml, incubated with human serum for 10 hr. On the procedure: The prepared solutions were introduced into glass vials and kept to stand at 40° C. for 7, 14, 21, 28, 35, 42 and 60 days. […] The present inventors tested stability of niacin-peptides in human serum. Niacin-peptides (nicotinoyl-PS, 100 μg/ml) or niacin-unlinked peptide (PS, 100 μg/ml) was incubated with human serum for 10 hr, and the amount of residual peptides was measured at every hour. According to the result of the comparative stability experiment, when nicotinoyl-PS (nicotinoyl group linked to the N-terminal of PS peptide) was incubated with the serum for 10 hr, the stability of niacin-peptides was 20% higher than the control group (niacin-unlinked peptide).
Regarding `O=C(O)[C@H](CO)NC(=O)[C@@H]1CCCN1C(=O)c1cccnc1` [nicotinoyl-PS] (Nicotinoyl-Pro-Ser-OH), the “stability higher than the control group (niacin-unlinked peptide PS)” value is on record as 20%.
